Assay results published in patent US10689339B2, “Pyrrolidine derivatives” (Hoffmann-La Roche Inc., priority 2016, dated 2020).

Target: human Cat S (Homo sapiens (Human), UniProt P25774)
Test: Cathepsin enzyme inhibition assay (fluorogenic peptide substrate Z-Val-Val-Arg-AMC)
Format: biochemical
Conditions: enzyme 1 nM, substrate 20 μM, pH 6.5
In short: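 Enzymes at 1 nM in 100 mM potassium phosphate pH 6.5, 5 mM EDTA, 0.001% Triton X-100, 5 mM DTT; reaction started with 20 µM Z-Val-Val-Arg-AMC after enzyme–compound mixing.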

Sequence of human Cat S (P25774 115-331): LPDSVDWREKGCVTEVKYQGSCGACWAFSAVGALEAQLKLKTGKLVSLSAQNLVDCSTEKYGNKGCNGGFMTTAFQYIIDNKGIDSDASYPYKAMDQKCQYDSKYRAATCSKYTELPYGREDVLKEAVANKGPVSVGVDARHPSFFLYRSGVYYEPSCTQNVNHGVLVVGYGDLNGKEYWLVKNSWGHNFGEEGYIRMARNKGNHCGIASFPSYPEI

Cc1nc(C)c(-c2ccc(S(=O)(=O)[C@@H]3C[C@@H](C(=O)NC4(C#N)CC4)N(C(=O)C4(C(F)(F)F)CC4)C3)c(C)c2)s1 [Example 60, (2S,4R)—N-(1-cyanocyclopropyl)-4-(4-(2,4-dimethylthiazol-5-yl)-2-methylphenylsulfonyl)-1-(1-(trifluoromethyl)cyclopropanecarbonyl)pyrrolidine-2-carboxamide]
IC50: 0.614 nM

Cc1ncc(-c2ccc(S(=O)(=O)[C@@H]3C[C@@H](C(=O)NC4(C#N)CC4)N(C(=O)C4(C(F)(F)F)CC4)C3)c(C)c2)s1 [Example 61, (2S,4R)—N-(1-cyanocyclopropyl)-4-(2-methyl-4-(2-methylthiazol-5-yl)phenylsulfonyl)-1-(1-(trifluoromethyl)cyclopropanecarbonyl)pyrrolidine-2-carboxamide]
IC50: 0.613 nM

COc1ncc(-c2ccc(S(=O)(=O)[C@@H]3C[C@@H](C(=O)NC4(C#N)CC4)N(C(=O)C4(C(F)(F)F)CC4)C3)c(C)c2)cn1 [Example 62, (2S,4R)—N-(1-cyanocyclopropyl)-4-(4-(2-methoxypyrimidin-5-yl)-2-methylphenylsulfonyl)-1-(1-(trifluoromethyl)cyclopropanecarbonyl)pyrrolidine-2-carboxamide]
IC50: 0.592 nM

Cc1ncc(-c2ccc(S(=O)(=O)[C@@H]3C[C@@H](C(=O)NC4(C#N)CC4)N(C(=O)C4(C(F)(F)F)CC4)C3)c(C(F)(F)F)c2)s1 [Example 63, (2S,4R)-4-[4-(2-Methyl-thiazol-5-yl)-2-trifluoromethyl-benzenesulfonyl]-1-(1-trifluoromethyl-cyclopropanecarbonyl)-pyrrolidine-2-carboxylic acid (1-cyano-cyclopropyl)-amide]
IC50: 0.585 nM

Cc1cc(-c2c(C)noc2C)ccc1S(=O)(=O)[C@@H]1C[C@@H](C(=O)NC2(C#N)CC2)N(C(=O)C2(C(F)(F)F)CC2)C1 [Example 64, (2S,4R)—N-(1-cyanocyclopropyl)-4-(4-(3,5-dimethylisoxazol-4-yl)-2-methylphenylsulfonyl)-1-(1-(trifluoromethyl)cyclopropanecarbonyl)pyrrolidine-2-carboxamide]
IC50: 0.65 nM

Cc1cc(-n2cnc(Cl)n2)ccc1S(=O)(=O)[C@@H]1C[C@@H](C(=O)NC2(C#N)CC2)N(C(=O)C2(C(F)(F)F)CC2)C1 [Example 66, (2S,4R)-4-(4-(3-chloro-1H-1,2,4-triazol-1-yl)-2-methylphenylsulfonyl)-N-(1-cyanocyclopropyl)-1-(1-(trifluoromethyl)cyclopropanecarbonyl)pyrrolidine-2-carboxamide]
IC50: 223 nM

Cc1cc(-n2cnc(Cl)n2)ccc1S(=O)(=O)[C@@H]1C[C@H](C(=O)NC2(C#N)CC2)N(C(=O)C2(C(F)(F)F)CC2)C1 [Example 67, (2R,4R)-4-(4-(3-chloro-1H-1,2,4-triazol-1-yl)-2-methylphenylsulfonyl)-N-(1-cyanocyclopropyl)-1-(1-(trifluoromethyl)cyclopropanecarbonyl)pyrrolidine-2-carboxamide]
IC50: 542 nM

Cn1cc(-c2ccc(S(=O)(=O)[C@@H]3C[C@@H](C(=O)NC4(C#N)CC4)N(C(=O)C4(C(F)(F)F)CC4)C3)c(C(F)(F)F)c2)c(C(F)(F)F)n1 [Example 68, (2S,4R)-4-[4-(1-Methyl-3-trifluoromethyl-1Hpyrazol-4-yl)-2-trifluoromethyl-benzenesulfonyl]-1-(1-trifluoromethyl-cyclopropanecarbonyl)-pyrrolidine-2-carboxylic acid (1-cyano-cyclopropyl)-amide]
IC50: 0.829 nM

N#CC1(NC(=O)[C@@H]2C[C@@H](S(=O)(=O)c3ccc(-n4cnc(Cl)n4)cc3)CN2C(=O)C2(C(F)(F)F)CC2)CC1 [Example 69, (2S,4R)-4-(4-(3-chloro-1H-1,2,4-triazol-1-yl)phenylsulfonyl)-N-(1-cyanocyclopropyl)-1-(1-(trifluoromethyl)cyclopropanecarbonyl)pyrrolidine-2-carboxamide]
IC50: 497 nM
